This experiment concerns C3H10T1/2 cell strain. As to the kind of experiment: Induction of alkali phosphatase activity in C3H10T1/2 cell strain. The note with it: 200 μg peptide solidified per well by air drying; three days of incubation; blank wells 0.24±0.11. It counts as cell-based, mouse. The protocol:
Undifferentiated mouse mesenchymal cell strain C3H10T1/2 (purchased from Dai-Nippon Seiyaku KK, Japan) was dispersed in Eagle's MEM medium containing 10% of fetal bovine serum in a cell concentration of 3.75×10^4 cells/mL, and thus a cell culture liquid was prepared.
Three days after the start of incubation, a culture supernatant was removed, and the wells were washed once with phosphate buffer (PBS: 10 mM, containing 0.15 M of common salt, pH 7.4). To each well of the 96-hole plates, 100 μL of Tris buffer (20 mM, pH 8.5) containing 1% Triton X-100 was added and allowed to stand for 30 minutes to dissolve cells. With respect to 100 μL of the resulting cell solution, 100 μL of Tris buffer (1.5 M, containing 1 mM of ZnCl2 and 1 mM of MgCl2, pH 8.5) containing 7.5 mM of p-nitrophenyl phosphate (purchased from Wako Junyaku Kogyo, Japan) were added. Increase in absorbency at 405 nm was measured to determine the alkaline phosphatase activity in the cell solution. The concentration of protein in the cell solution was also determined using a BCA assay kit (produced by Pierce).
For the substance “Example 1: Peptide having amino acid sequence SEQ ID NO:4 with an amino group at the N terminal and a carboxyl group at the C terminal (NSVNSKIPKACSVPTELSAISTLYL)”, the alkaline phosphatase activity is 1.3±0.9 nmol/min·mg-protein.
As to “Example 2: Peptide having amino acid sequence SEQ ID NO:4 with an amino group at the N terminal and an amide group at the C terminal (H-NSVNSKIPKACSVPTELSAISTLYL-NH2)”, the alkaline phosphatase activity amounted to 1.5±0.6 nmol/min·mg-protein.
With “Example 3: Peptide having amino acid sequence SEQ ID NO:5 with an amino group at the N terminal and an amide group at the C terminal (H-NSVNSKIPKASSVPTELSAISTLYL-NH2)”, the alkaline phosphatase activity worked out at 1.5±0.8 nmol/min·mg-protein.
Consider “Example 4: Peptide having amino acid sequence SEQ ID NO:6 with an amino group at the N terminal and an amide group at the C terminal (H-KIPKASSVPTELSAISTLYL-NH2)”, for which the alkaline phosphatase activity is listed as 1.7±0.1 nmol/min·mg-protein.

These data come from patent US7132506B2, “Peptide having osteogenetic activity and osteogenetic accelerator containing the same” (Kyocera Corporation, priority 2001, dated 2006).
